Data as given in patent publication US10626081B2, “Farnesoid X receptor agonists and uses thereof” (Metacrine, Inc., priority 2015, dated 2020).

Columns and labels:
FXR [1] = molecular target: T1, FXR (Homo sapiens, UniProt Q96RI1); assay: In Vitro FXR Assay (PGL3): luciferase reporter in transfected CV-1 cells; format: cell-based; conditions: CV-1 cells transfected with hFXR, hRXR, PGL3-ECRE*6-luc; 18 h incubation; luminescence
T1 construct: expressed in transfected cells; host or cells: CV-1 cells
T1 sequence (Q96RI1 1-486): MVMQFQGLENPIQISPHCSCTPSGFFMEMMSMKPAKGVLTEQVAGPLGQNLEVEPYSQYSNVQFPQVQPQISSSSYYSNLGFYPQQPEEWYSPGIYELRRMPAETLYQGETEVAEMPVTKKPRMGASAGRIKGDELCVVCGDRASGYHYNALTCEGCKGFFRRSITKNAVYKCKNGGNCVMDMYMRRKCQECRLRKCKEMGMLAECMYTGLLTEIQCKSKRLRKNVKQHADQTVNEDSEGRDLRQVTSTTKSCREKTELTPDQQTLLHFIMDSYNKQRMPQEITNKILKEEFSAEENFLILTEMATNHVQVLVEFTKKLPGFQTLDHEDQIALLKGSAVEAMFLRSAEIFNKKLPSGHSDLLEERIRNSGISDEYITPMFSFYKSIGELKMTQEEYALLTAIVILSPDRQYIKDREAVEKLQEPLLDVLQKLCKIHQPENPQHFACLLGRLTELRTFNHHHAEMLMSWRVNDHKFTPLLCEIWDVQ
T1 sequence (P19793 1-462 partner): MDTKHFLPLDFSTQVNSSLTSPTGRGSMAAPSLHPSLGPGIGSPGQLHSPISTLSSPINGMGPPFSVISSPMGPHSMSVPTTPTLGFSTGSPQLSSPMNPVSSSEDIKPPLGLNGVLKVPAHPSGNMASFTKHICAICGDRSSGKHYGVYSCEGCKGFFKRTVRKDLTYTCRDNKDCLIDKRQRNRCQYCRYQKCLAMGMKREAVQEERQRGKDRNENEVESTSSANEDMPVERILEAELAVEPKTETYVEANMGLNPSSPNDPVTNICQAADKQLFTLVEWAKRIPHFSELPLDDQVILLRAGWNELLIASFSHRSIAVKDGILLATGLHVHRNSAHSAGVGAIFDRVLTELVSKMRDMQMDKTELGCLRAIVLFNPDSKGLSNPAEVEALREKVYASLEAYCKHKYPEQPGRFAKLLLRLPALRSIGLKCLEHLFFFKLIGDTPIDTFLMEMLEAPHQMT
Description: Example B-1: In Vitro FXR Assay (PGL3)
CV-1 cells were seeded at a density of 2,000,000 cells in a T175 flask with DMEM+10% charcoal double-stripped FBS and incubated at 37° C. in a 5% CO2 for 18 h (O/N).
After 18 h of incubation, the medium in the T175 flask was changed with fresh DMEM+10% charcoal super-stripped serum.
To prepare the transfection reaction mixture, the transfection reagent (X-tremeGENE HP from Roche, Cat #06 366 236 001) was added in to a 1.5 mL microcentrifuge tube labelled “A” at a ratio of 1:3 (DNA in transfection reagent in μL). OptiMEM medium (Life Technologies, Cat #31985-062) was added accordingly to provide a total volume of 1 mL. The transfection reaction mixture was then briefly vortexed and incubated at room temperature for 5 minutes.
In a separate 1.5 mL microcentrifuge tube labelled “B”, 100 μL OptiMEM and plasmids XPD90Gal pCMXhFXRfl, pCMXhRXRfl+PGL3-ECRE*6-luc+CMX-YFP in the ratio 2 μg:2 μg:18 μg:3 μg were added. This microcentrifuge tube “B” was then briefly vortexed and incubated at room temperature for 5 minutes.
The total volume in tube labelled “A” was then transferred in to tube labelled “B.” The mixture was then briefly vortexed and the transfection:DNA complex was then incubated for about 15-20 minutes at room temperature.
Following incubation, the transfection reagent/DNA mixture complex was then added to cells in the T175 flask and the cells were incubated at […] (O/N) at 37° C. in 5% CO2.
In a 96 well plate, a half logarithmic serial dilution was prepared. OptiMEM was used as the diluent. Using any of one of the compounds described herein, a compound stock solution of 10 mM was prepared. An initial 1:100 dilution was made into the first well for a final concentration of 100 μM. The final concentrations in the 96-well plate was prepared by using a multichannel pipette to transfer 5 μL of the diluted compound to 384-well plate in quadruplicate.
Cells in T175 flask were trypsinized and cells were resuspended in 40 mL phenol red free DMEM+10% charcoal super-stripped FBS. Typically, one T175 flask was sufficient to seed two 384 well plates. CV-1 cells were seeded at 45 μL cell suspension/well using a multi-channel pipet or a 384 multidrop dispenser. The cells were then incubated for 18 hrs, overnight.
After removing the plates from the incubator, the medium was flicked out of plate and 384 well plate was turned upside down onto paper towel. The remaining medium was gently tapped out. 15 μL lysis buffer was then added to each well using a multichannel pipet or a 384 well multi-drop dispenser. After incubation for 10 minutes at room temperature on shaker, 30 μL Luciferase buffer was added to each well. Luminescence counts were taken immediately using the Perkin Elmer Envision.
The ability of the compounds disclosed herein to […] FXR activity was quantified and the respective EC50 value was determined. Fex=fexaramine.

FXR [2] = molecular target: T1, FXR; assay: In Vitro FXR Assay (TK): TK-ECRE-luc reporter in transfected CV-1 cells; format: cell-based; conditions: CV-1 cells transfected with hFXR, hRXR, 18 h incubation, luminescence
Summary of the method: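 CV-1 cells in charcoal-stripped FBS medium were transiently cotransfected with hFXR, hRXR, TK-ECRE-luc and pCMX-YFP plasmids. After 18 h, compounds serially diluted in DMSO were added for 18 h at 37 °C, 5% CO2, then cells were lysed and luminescence read.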

Row | SMILES | Cmpd/Fex (ratio of the EC50 for the test compound relative to the EC50 of the Fexaramine control) (FXR [1]) | EC50 (FXR [2]) [nM]
1 | CCCC(=O)N(Cc1ccc(-c2ccc(N(C)C)cc2)cc1)c1cccc(/C=C/C(=O)OC)c1 [compound 2, (E)-Methyl 3-(3-(N-((4′-(dimethylamino)-[1,1′-biphenyl]-4-yl)methyl)butyramido)phenyl)acrylate] | ++ (‘++’ means Cmpd/Fex > 10 & < 100) | 1000 to 10000
2 | CCOC(=O)N(Cc1ccc(-c2ccc(N(C)C)cc2)cc1)c1cccc(/C=C/C(=O)OC)c1 [compound 3, (E)-Methyl 3-(3-(((4′-(dimethylamino)-[1,1′-biphenyl]-4-yl)methyl)(ethoxycarbonyl)amino)phenyl)acrylate] | ++ (‘++’ means Cmpd/Fex > 10 & < 100) | 1000 to 10000
3 | COC(=O)/C=C/c1cccc(N(Cc2ccc(-c3ccc(N(C)C)cc3)cc2)C(=O)c2ccc(C#N)cc2)c1 [compound 4, (E)-Methyl 3-(3-(4-cyano-N-((4′-(dimethylamino)-[1,1′-biphenyl]-4-yl)methyl)benzamido)phenyl)acrylate] | +++ (‘+++’ means Cmpd/Fex < 10) | 1000 to 10000
4 | COC(=O)/C=C/c1cccc(N(Cc2ccc(-c3ccc(N(C)C)cc3)cc2)C(=O)C2CCOCC2)c1 [compound 5, (E)-Methyl 3-(3-(N-((4′-(dimethylamino)-[1,1′-biphenyl]-4-yl)methyl)tetrahydro-2H-pyran-4-carboxamido)phenyl)acrylate] | +++ (‘+++’ means Cmpd/Fex < 10) | ≤ 1000
5 | COC(=O)/C=C/c1cccc(N(Cc2ccc(-c3ccc(N(C)C)cc3)cc2)C(=O)C2COC2)c1 [compound 6, (E)-Methyl 3-(3-(N-((4′-(dimethylamino)-[1,1′-biphenyl]-4-yl)methyl)oxetane-3-carboxamido)phenyl)acrylate] | ++ (‘++’ means Cmpd/Fex > 10 & < 100) | 1000 to 10000
6 | COC(=O)/C=C/c1cccc(N(Cc2ccc(-c3ccc(N(C)C)cc3)cc2)C(=O)CC(C)(C)C)c1 [compound 7, (E)-Methyl 3-(3-(N-((4′-(dimethylamino)-[1,1′-biphenyl]-4-yl)methyl)-3,3-dimethylbutanamido)phenyl)acrylate] | +++ (‘+++’ means Cmpd/Fex < 10) | ≤ 1000
7 | COC(=O)/C=C/c1cccc(N(Cc2ccc(-c3ccc(N(C)C)cc3)cc2)C(=O)[C@H]2CC[C@@H](OC)CC2)c1 [compound 8, (E)-Methyl 3-(3-((1r,4r)-N-((4′-(dimethylamino)-[1,1′-biphenyl]-4-yl)methyl)-4-methoxycyclohexanecarboxamido)phenyl)acrylate] | +++ (‘+++’ means Cmpd/Fex < 10) | ≤ 1000
8 | COC(=O)/C=C/c1cccc(N(Cc2ccc(-c3ccc(N(C)C)cc3)cc2)C(=O)[C@H]2CC[C@H](OC)CC2)c1 [compound 9, (E)-Methyl 3-(3-((1s,4s)-N-((4′-(dimethylamino)-[1,1′-biphenyl]-4-yl)methyl)-4-methoxycyclohexanecarboxamido)phenyl)acrylate] | +++ (‘+++’ means Cmpd/Fex < 10) | ≤ 1000
9 | COC(=O)/C=C/c1cccc(N(Cc2ccc(-c3ccc(N(C)C)cc3)cc2)C(=O)c2ccc(OC)cc2)c1 [compound 10, (E)-Methyl 3-(3-(N-((4′-(dimethylamino)-[1,1′-biphenyl]-4-yl)methyl)-4-methoxybenzamido)phenyl)acrylate] | +++ (‘+++’ means Cmpd/Fex < 10) | 1000 to 10000
10 | COC(=O)/C=C/c1cccc(N(Cc2ccc(-c3ccc(N(C)C)cc3)cc2)C(=O)C2CCCCCC2)c1 [compound 11, (E)-Methyl 3-(3-(N-((4′-(dimethylamino)-[1,1′-biphenyl]-4-yl)methyl)cycloheptanecarboxamido)phenyl)acrylate] | +++ (‘+++’ means Cmpd/Fex < 10) | ≤ 1000
11 | COC(=O)/C=C/c1cccc(N(Cc2ccc(-c3ccc(N(C)C)cc3)cc2)C(=O)C23CC4CC(CC(C4)C2)C3)c1 [compound 12, (E)-Methyl 3-(3-(-N-((4′-(dimethylamino)-[1,1′-biphenyl]-4-yl)methyl)adamantane-1-carboxamido)phenyl)acrylate] | +++ (‘+++’ means Cmpd/Fex < 10) | 1000 to 10000
12 | COC(=O)/C=C/c1cccc(N(Cc2ccc(C3CCCCC3)cc2)C(=O)C2CCCCC2)c1 [compound 13, (E)-methyl 3-(3-(N-(4-cyclohexylbenzyl)cyclohexanecarboxamido)phenyl)acrylate] | + (‘+’ means Cmpd/Fex > 100) | > 10000
13 | COC(=O)/C=C/c1cccc(N(Cc2ccc(-c3ccc(N(C)C)cc3)cc2)C(=O)C2CCCC2)c1 [compound 14, (E)-Methyl 3-(3-(N-((4′-(dimethylamino)-[1,1′-biphenyl]-4-yl)methyl)cyclopentanecarboxamido)phenyl)acrylate] | +++ (‘+++’ means Cmpd/Fex < 10) | ≤ 1000
14 | COC(=O)/C=C/c1cccc(N(Cc2ccc(-c3ccc(N(C)C)cc3)cc2)C(=O)C2CCC2)c1 [compound 15, (E)-Methyl 3-(3-(N-((4′-(dimethylamino)-[1,1′-biphenyl]-4-yl)methyl)cyclobutanecarboxamido)phenyl) acrylate] | +++ (‘+++’ means Cmpd/Fex < 10) | 1000 to 10000
15 | COC(=O)/C=C/c1cccc(N(Cc2ccc(-c3ccc(N(C)C)cc3)cc2)C(=O)N2CCCCC2)c1 [compound 16] | ++ (‘++’ means Cmpd/Fex > 10 & < 100) | 1000 to 10000
16 | COC(=O)/C=C/c1cccc(N(Cc2ccc(-c3ccc(N(C)C)cc3)cc2)C(=O)[C@H]2CC[C@@H](O)CC2)c1 [compound 18, cis-(E)-Methyl 3-(3-(N-((4′-(dimethylamino)-[1,1′-biphenyl]-4-yl)methyl)-4-hydroxycyclohexanecarboxamido)phenyl)acrylate] | +++ (‘+++’ means Cmpd/Fex < 10) | ≤ 1000
